These are literature values, as cited in article PMC8198792, “Prediction of Anticancer Peptides with High Efficacy and Low Toxicity by Hybrid Model Based on 3D Structure of Peptides” (International Journal of Molecular Sciences, 2021).

The first series deals with cancer cell lines. More on the design: method as in 6 sources, ref CancerPPD [45] and SATPdb ||| ref CancerPPD/SATPdb ||| ref CancerPPD, SATPdb, Swissprot (PDB) ||| ref CancerPPD/SATPdb/Swissprot(PDB) ||| ref CancerPPD / SATPdb ||| ... As to conditions: ACPs dataset D1; 1 = ACP (positive), 0 = non-ACP (negative); label taken from databases; ref CancerPPD [45] and SATPdb; cited from earlier work. An excerpt:
Supplement ijms-22-05630-s001.zip/ACPs(seguence).xlsx, sheet "D1" | column: Activity || Supplement ijms-22-05630-s001.zip/ACPs(seguence).xlsx, sheet "D2" | column: Activity || Supplement ijms-22-05630-s001.zip/ACPs(seguence).xlsx, sheet "D3" | column: Activity || (+ 2 further places)
Take PAARKAARWAWRMLKKGA [compound 1614]: the Activity is recorded as 1.

Still in this series, the particulars now being: ACPs dataset D3 (supplement sheet "D3"); 1 = ACP, 0 = non-ACP; ref CancerPPD [45] and SATPdb; cited from earlier work.
Regarding KWKLFKKIPLHLAKKF [compound 1139], the Activity is 1.

As for VAKKLAKLAKKLAKLAL [compound 1919], the Activity is on record as 1.

Still in this series, the particulars now being: ACPs dataset D4 (sheet "D4"); label 1 = ACP (CancerPPD ID), 0 = non-ACP (non-anticancer AMP, SATPdb ID); ref CancerPPD [45] and SATPdb; cited from earlier work.
Regarding KWKLFKKIPLHLAKKF [compound 1139], the Activity is on record as 1.

Turning to VAKKLAKLAKKLAKLAL [compound 1919], the Activity is on record as 1.

The series is the same for the next values; noted with them: ACPs dataset D4 (sheet "D4"); label 1 = ACP; experimentally validated ACPs; ref CancerPPD [45] and SATPdb; cited from earlier work.
With PAARKAARWAWRMLKKGA [compound 1614], the Activity was 1.

The same series, now with this note: ACPs dataset D5 (sheet "D5"); label 1 = ACP (positive set), 0 = non-ACP (negative set); ref CancerPPD [45] and SATPdb; cited from earlier work.
For KWKLFKKIPLHLAKKF [compound 1139], the Activity is on record as 1.

For the substance VAKKLAKLAKKLAKLAL [compound 1919], the Activity was 1.

Still in this series, the particulars now being: ACPs dataset D5 (sheet "D5"); label 1 = ACP (positive set); sequences with CancerPPD/SATPdb ID; ref CancerPPD, SATPdb; cited from earlier work.
Regarding PAARKAARWAWRMLKKGA [compound 1614], the Activity was 1.

Staying with this series, now noted: ACPs dataset sheet D2; 1 = ACP (CancerPPD/SATPdb ID), 0 = non-ACP (Swissprot/PDB ID); ref CancerPPD, SATPdb, Swissprot (PDB); cited from earlier work.
On to PAARKAARWAWRMLKKGA [compound 1614], for which the Activity is 1.

The subject of a further series is erythrocytes. As to conditions: Hemolytic peptides dataset HD2; label 1 = hemolytic, 0 = non-hemolytic; ref Hemolytik/SATPdb; cited from earlier work. An excerpt:
Supplement ijms-22-05630-s001.zip/Hemloytic Peptides(seguence).xlsx, sheet "HD1" | column: Activity || Supplement ijms-22-05630-s001.zip/Hemloytic Peptides(seguence).xlsx, sheet "HD2" | column: Activity || Supplement ijms-22-05630-s001.zip/Hemloytic Peptides(seguence).xlsx, sheet "HD3" | column: Activity
As for KKlFKKILkYL [satpdb19353], the Activity is given as 0.

On to fPOVO [satpdb21927], for which the Activity is reported as 0.

On to “KWKSFLKTFKSlKKTVLHTlLKAISS [satpdb12638]”, for which the Activity is recorded as 1.

With WLLKW [satpdb27330], the Activity was 0.

Still in this series, the particulars now being: cited from earlier work.
On to VRRFPFFFPFLRR [satpdb22709], for which the Activity is given as 0 and the “Activity (dataset HD1, hemolytic 1 / non-hemolytic 0)” value is reported as 0.

Turning to RRRAAFAAWAAFAARRR [satpdb23563], the Activity is listed as 0.

For the substance WYSEMKRNVQRLERAIEE [satpdb11990], the Activity is recorded as 1.

With “ALLHHGLNCAKGVLAALLHHGLNCAKGVLA [satpdb21285]”, the Activity was 0 and the “Activity (dataset HD1, hemolytic 1 / non-hemolytic 0)” value is reported as 0.

In the case of VLSAADKGNVKAAWGKVGGHAAE [satpdb26597], the Activity was 0 and the “Activity (dataset HD1, hemolytic 1 / non-hemolytic 0)” value is on record as 0.

Consider CVHWQTNPARTSCIGP [satpdb12022], for which the Activity is reported as 0 and the “Activity (dataset HD1, hemolytic 1 / non-hemolytic 0)” value is 0.

On to FLPLLLAGLPKLLCLFFKKC [satpdb14955], for which the Activity was 1 and the “Activity (dataset HD1, hemolytic 1 / non-hemolytic 0)” value is 1.

On to LKKWLKKWLKK [satpdb15781], for which the Activity is 0.

For the substance TGRAKRRMQYNRR [satpdb25092], the Activity is recorded as 0 and the “Activity (dataset HD1, hemolytic 1 / non-hemolytic 0)” value is recorded as 0.

As to KRFKQDGGWSHWSPWSS [satpdb23837], the Activity is on record as 0 and the “Activity (dataset HD1, hemolytic 1 / non-hemolytic 0)” value is given as 0.

For the substance KLLLKLLKLLLKLLLKLLK [compound 3687], the Activity is given as 1.

Turning to VRRFPAAAPFLRR [satpdb24534], the Activity is 0 and the “Activity (dataset HD1, hemolytic 1 / non-hemolytic 0)” value was 0.

For the substance FLPLIGRVLSGIL [satpdb12693], the Activity is recorded as 1.

KRLFRRWQWRMKKY [satpdb17153]: the Activity is given as 0 and the “Activity (dataset HD1, hemolytic 1 / non-hemolytic 0)” value was 0.

As for RGGRLAYCRRRFCVAVGR [satpdb25189], the Activity is 0.

In the case of RAGLQFPVGRLLRRLLR [satpdb15223], the Activity is 0 and the “Activity (dataset HD1, hemolytic 1 / non-hemolytic 0)” value is listed as 0.

Turning to KWKLFKKIPKFLHSAKKF [satpdb25981], the Activity is on record as 0.

In the case of RRGWALRLVLAY [satpdb14852], the Activity is recorded as 1 and the “Activity (dataset HD1, hemolytic 1 / non-hemolytic 0)” value was 1.

On to HYRIKPTFRRLKWKYKGKFW [satpdb11796], for which the Activity is 1 and the “Activity (dataset HD1, hemolytic 1 / non-hemolytic 0)” value is given as 1.

Regarding FLPLVLGALSGILPKILGK [satpdb12081], the Activity was 1 and the “Activity (dataset HD1, hemolytic 1 / non-hemolytic 0)” value is listed as 1.

Regarding EMLKKKEVKMERKT [satpdb18957], the Activity is 0 and the “Activity (dataset HD1, hemolytic 1 / non-hemolytic 0)” value is listed as 0.

Regarding ILGKLLSTAWGLLSNL [satpdb11718], the Activity was 1.

For the substance GRDYRTSLTIVQKLKKMVD [satpdb22468], the Activity is 0 and the “Activity (dataset HD1, hemolytic 1 / non-hemolytic 0)” value was 0.

As for FDWDSVLKGVEGFVRGYF [satpdb25715], the Activity is 0 and the “Activity (dataset HD1, hemolytic 1 / non-hemolytic 0)” value is reported as 0.

Turning to “ENAEEDIVLMENLFCSYIVGSADSFWT [satpdb18741]”, the Activity is 0 and the “Activity (dataset HD1, hemolytic 1 / non-hemolytic 0)” value is listed as 0.

In the case of KKKKKKAAFALWAAFAA [compound 1147], the Activity is 1.

Turning to CKTRTSTNTDHLWIAKSKARLSET [satpdb28106], the Activity is recorded as 0 and the “Activity (dataset HD1, hemolytic 1 / non-hemolytic 0)” value is reported as 0.

LLLKLLKLLLKLLLKLLK [compound 3688]: the Activity is on record as 1.

Regarding KWLRRVWRWWR [satpdb13727], the Activity is 1.

For “KWKSFLkTFKSLKKTVLHTLLKAISS [satpdb10544]”, the Activity is listed as 1.

Take GWGSIFKHGRHAAKHIGHAAVNHYL [satpdb11681]: the Activity is recorded as 1.

On to GWRKWIKKATHVGKHIGKAALDAYI [satpdb10530], for which the Activity is given as 1.

As to ILPLKLPWLPLRR [satpdb11800], the Activity is on record as 0.

Take FKTWKRPPFQTSCSGIIKE [satpdb21275]: the Activity is given as 0 and the “Activity (dataset HD1, hemolytic 1 / non-hemolytic 0)” value is reported as 0.

As for KPLLKKLLKKL [satpdb28330], the Activity is 0.

On to “QRSVSNAATRVSRTGRSRWRDVSRNFMRR [satpdb24123]”, for which the Activity is recorded as 0 and the “Activity (dataset HD1, hemolytic 1 / non-hemolytic 0)” value was 0.

In the case of “GFLGPLLKLGLKGVAKVIPHLIPSRQQ [satpdb16038]”, the Activity is listed as 1 and the “Activity (dataset HD1, hemolytic 1 / non-hemolytic 0)” value is on record as 1.

Turning to ILGKLLSTAAKLLSKL [satpdb12927], the Activity is recorded as 1.

As to KKLFKKILkYL [satpdb24648], the Activity is 0.

With KSLVRRWRSRW [satpdb18185], the Activity was 0.

KKLLPIVANLLKSLL [satpdb19176]: the Activity is recorded as 0 and the “Activity (dataset HD1, hemolytic 1 / non-hemolytic 0)” value is 0.

For the substance “GGLRSLGRKILRAWKKYGPIIVPIIRIG [satpdb22390]”, the Activity is on record as 0 and the “Activity (dataset HD1, hemolytic 1 / non-hemolytic 0)” value was 0.

With CVISAGWNHKIRCKLTGNC [satpdb27441], the Activity is given as 0 and the “Activity (dataset HD1, hemolytic 1 / non-hemolytic 0)” value is listed as 0.

As for KKKKKKAAFAAFAAFAA [satpdb24627], the Activity was 0.

Take GLWSTIKNVGKEAAIAAGKAALGAL [satpdb11818]: the Activity is listed as 0.

With “GFWKKVGSAAWGGVKAAAKGAAVGGLNALAKHIQ [satpdb28387]”, the Activity is 0 and the “Activity (dataset HD1, hemolytic 1 / non-hemolytic 0)” value is 0.

For LRQSQFVGSR [satpdb22092], the Activity is 0.

With KKKKKKAAFLAWALFAA [compound 1149], the Activity is 1.

In the case of GSKKPVPIIYCNRRAATGKCQRM [satpdb20782], the Activity is given as 0 and the “Activity (dataset HD1, hemolytic 1 / non-hemolytic 0)” value was 0.

Consider KVAKQEKKKKKTGRAKRR [satpdb15637], for which the Activity is 1 and the “Activity (dataset HD1, hemolytic 1 / non-hemolytic 0)” value is listed as 1.

For the substance RRLMAAKAESRK [satpdb23556], the Activity is 0 and the “Activity (dataset HD1, hemolytic 1 / non-hemolytic 0)” value is given as 0.

With GWGSFFKKAAHVGKHVGKA [satpdb20663], the Activity was 0.

For the substance KKFLHSAKKWLKAFVKLKKNW [satpdb15438], the Activity is on record as 1 and the “Activity (dataset HD1, hemolytic 1 / non-hemolytic 0)” value is 1.

On to QSRVIQGLVAGETAQQICED [satpdb27946], for which the Activity was 0 and the “Activity (dataset HD1, hemolytic 1 / non-hemolytic 0)” value is on record as 0.

As to DVNDLKNLCAKTHNLLPMCAMFGKK [satpdb20310], the Activity is 0 and the “Activity (dataset HD1, hemolytic 1 / non-hemolytic 0)” value is given as 0.

As for “QLQGKQVSGEVVQKVLQELIQSVAKP [satpdb28356]”, the Activity is 0 and the “Activity (dataset HD1, hemolytic 1 / non-hemolytic 0)” value was 0.

As to “GLFDIIKKIAESFKFSEAIKKIIDFLG [satpdb13437]”, the Activity is listed as 1 and the “Activity (dataset HD1, hemolytic 1 / non-hemolytic 0)” value was 1.

Still in this series, the particulars now being: hemolytic peptides dataset HD3; 1 = hemolytic (positive set), 0 = non-hemolytic (negative set); labels taken from databases; ref Hemolytik/SATPdb; cited from earlier work.
In the case of KKlFKKILkYL [satpdb19353], the Activity was 0.

As to fPOVO [satpdb21927], the Activity is reported as 0.

In the case of FSPQMLQDIIEAATAIL [satpdb19301], the Activity was 0.

In the case of “KWKSFLKTFKSlKKTVLHTlLKAISS [satpdb12638]”, the Activity is 1.

As to “GTPCGESCVYIPCISGVIGCSCTDKVCYLN [satpdb10399]”, the Activity is on record as 1.

On to WLLKW [satpdb27330], for which the Activity is recorded as 0.

The same series, now with this note: natural hemolytic peptide dataset HD1, label collected from databases; ref Hemolytik [49], SATPdb [34]; cited from earlier work.
As for FSPQMLQDIIEAATAIL [satpdb19301], the “Activity (dataset HD1, hemolytic 1 / non-hemolytic 0)” value is 0.

Turning to “GTPCGESCVYIPCISGVIGCSCTDKVCYLN [satpdb10399]”, the “Activity (dataset HD1, hemolytic 1 / non-hemolytic 0)” value is listed as 1.
